Experimental data from paper PMC2364024, “Bioavailability and dose-dependent anti-tumour effects of 9-cis retinoic acid on human neuroblastoma xenografts in rat” (British Journal of Cancer, 2001).
“And” between values parts separate entries of the source, which are not always exact repeats. Equal values may be shown once. “Also recorded” adds a separate entry of the source. Read-outs that look alike come from different tables or passages of the source.

Legend:
[1] = rat, in vivo; for AUC (area under the curve) / Cmax (concentration maximum) / T1/2 (elimination half-life) / ratio AUC (4-oxo-9-cis RA)/AUC (9 cis RA): 9 mg; for conversion of 9-cis RA to its metabolite (4-oxo-9-cis RA) / ratio AUC (4-oxo-9-cis RA)/AUC (9 cis RA): male, Sprague-Dawley
[2] = test system: human neuroblastoma SH-SY5Y xenografts; assay: Neuroblastoma SH-SY5Y xenograft tumour growth in nude rats; assay type: in vivo
Method: This increases the importance of finding new therapeutic drugs. […] Two animals were sacrificed at each time point. […] The true tumour weight was recorded at autopsy. […] All treatments were administered with a gastric feeding tube.

[3] = Pharmacokinetic study of 9-cis RA in rat (plasma HPLC, one-compartment model)
[4] = test system: human neuroblastoma SH-SY5Y xenografts; parameters: method as in Ponthan et al, 2001; conditions: nude rats, 9-cis RA 5 mg day-1 (once daily); ref Ponthan et al, 2001; cited from earlier work

In the case of `CC1=C(/C=C/C(C)=C\C=C\C(C)=C\C(=O)O)C(C)(C)CCC1=O` [4-oxo-9-cis RA, 4-oxo-9-cis retinoic acid], the “formed amount (AUC) of 4-oxo-9-cis RA after i.v. versus p.o. administration” value [1] was 2 fold, the “Tmax (time of Cmax)” value ([1]; iv) was 188 min and the “AUC (area under the curve)” value ([1]; iv) was 6295 ng/mL/h. The “Cmax (concentration maximum)” value ([1]; iv) was 738 ng/mL, the “T1/2 (elimination half-life)” value ([1]; iv) was 129 min and the “Tmax (time of Cmax)” value ([1]; po) was 275 min. The “AUC (area under the curve)” value ([1]; po) was 3563 ng/mL/h, the “Cmax (concentration maximum)” value ([1]; po) was 441 ng/mL and the “T1/2 (elimination half-life)” value ([1]; po) was 126 min.
For `CC1=C(/C=C/C(C)=C\C=C\C(C)=C\C(=O)O)C(C)(C)CCC1` [9-cis RA, 9-cis retinoic acid], the “conversion of 9-cis RA to its metabolite (4-oxo-9-cis RA)” value ([1]; iv) was “about 8%”, the “ratio AUC (4-oxo-9-cis RA)/AUC (9 cis RA)” value ([1]; iv) was 0.08 and the “conversion of 9-cis RA to its metabolite (4-oxo-9-cis RA)” value ([1]; po) was 42%. The “ratio AUC (4-oxo-9-cis RA)/AUC (9 cis RA)” value ([1]; po) was 0.42, the “tumour weight, trend” value ([2]; 2 x 2.5 mg day-1 treated group) was “tendency towards a reduction in tumour weights” and the “tumour weight at sacrifice, median (and range)” value ([2]; 9-cis RA 2 mg day-1 (RA 1), n 10 tumours, 12 days) was 2.79 g and 1.49 to 9.98 g. The “effect on tumour growth” value ([2]; 9-cis RA 2 mg day-1 p.o.) was “no significant effect on tumour growth; also recorded: tumour growth-inhibiting effect was not significant”, the “tumour volume compared to control tumours” value ([2]; 9-cis RA 2 mg day-1 p.o., 12 days) was “no significant reduction in tumour volume” and the “effect on tumour growth” value ([2]; 9-cis RA 2.5 mg p.o. twice daily) was “only limited effect on tumour growth; also recorded: limited but statisti- cally significant reduction in tumour growth”. The “tumour volume compared to corresponding controls” value ([2]; 9-cis RA 2.5 mg p.o. twice daily, day 8) was “not at day 8”, the “tumour weight at sacrifice, median (and range)” value ([2]; 9-cis RA 2 x 2.5 mg (RA 2), n 3 tumours, 10 days) was 1.84 g and 0.92 to 2.95 g and the “tumour weight compared to untreated control tumours” value ([2]; regardless of treatment schedule (2 mg day-1 or 2.5 mg twice daily), after 10-12 days of therapy) was “no significant reduction in tumour weight”. The “elimination half-life (t1/2)” value ([3]; 9 mg 9-cis RA, p.o. and i.v. taken together) was 26 to 43 min, the AUC (area under the curve) ([3]; intravenous administration, 9 mg 9-cis RA) was 80100 ng·h/mL and the Cmax ([3]; male, Sprague-Dawley, plasma, iv, 9 mg) was 120000 ng/mL. The half-life ([3]; male, Sprague-Dawley, plasma, iv, 9 mg, T1/2 (elimination half-life), intravenous administration, 9 mg 9-cis RA) was 26.4 min, the bioavailability ([3]; male, Sprague-Dawley, plasma, oral, 9 mg) was 11% and the half-life ([3]; male, Sprague-Dawley, plasma, other: p.o. and i.v. taken together, 9 mg, elimination half-life (t1/2), 9 mg 9-cis RA, p.o. and i.v. taken together) was 35 min. It also gave a Cmax ([3]; male, Sprague-Dawley, plasma, po, 9 mg) of 3000 ng/mL, a half-life ([3]; male, Sprague-Dawley, plasma, po, 9 mg, T1/2 (elimination half-life), oral administration, 9 mg 9-cis RA) of 42.6 min and an AUC (area under the curve) ([3]; oral administration, 9 mg 9-cis RA) of 8550 ng·h/mL. For the same molecule, the “effect on tumour growth” value [4] was “significant reduction in tumour growth”.
